Measured values reported in patent US20190150481A1, “COMPOSITIONS AND METHODS OF IMPROVING DIETARY PHOSPHORUS AND CALCIUM UTILIZATION IN ANIMALS” (Novus International, Inc., priority 2017, published 2019).
Values joined by “and” are separate entries in the source; they are usually repeats but may differ in a detail not shown here. Identical values can stand only once.

How the values were obtained:
Assay type in all cases: in vivo
nursery pigs [1] = assay: Gain to feed ratio during d 15 to 28 in nursery pigs; details: for G:F (d 15 to 28): 80 ppm Cu
Text: (§1) A total of 288 weaning barrows [TR-4×PIC C-22, initial body weight (BW)=5.71±0.71 kg] were allotted to 1 of 8 dietary treatments according to randomized complete block design. Pigs were blocked by initial body weight. The study started from weaning (day 0) to day 42 post-weaning. Three-phase feeding program was used in this study, in which day 0 to 14, day 15 to 28, and day 29 to 42 were considered as nursing phase 1, 2, and 3, respectively. A basal diet for each phase was formulated to meet the energy and nutrient requirement for different stages of pigs according to previously published recommendation,^1 with the exception of P [0.15% reduction of standardized total tract digestible (STTD) P] and Ca (adjusted according to the fixed ratio of Ca/STTD P=2.15). Eight experimental diets were formulated based on basal diet supplemented with phytase (0 or 500 FTU/kg), Zn sources (2000 ppm Zn from ZnO in phase 1 and 2, 100 ppm Zn from ZnO in phase 3; 100 ppm Zn from Zn(HMTBA)2 from phase 1 to 3) and Cu sources (150, 80, 80 ppm Cu from CuSO4 or Cu(HMTBA)2 in phase 1, 2, and 3, respectively) in a 2×2×2 factorial treatment design. Titanium dioxide at 0.4% was included in phase 2 diets to measure Ca and P digestibility.
(§2) SAS 9.4 (SAS Inst. Inc., Gary, N.C.) was used for all data analysis. Pen served as the experimental unit. The LSMEANS statement was be used to calculate the least square means. Tukey-Kramer adjustment was used for multiple comparisons of the least square means. Pooled SEM will be calculated for each measurement. A probability of P 0.05 will be considered as significant and 0.05<P≤0.10 will be declared as a trend. Mineral sources (Zn and Cu), phytase and their interactions were considered as the main effect, while block was considered as the random effect.

nursery pigs [2] = assay: Bone (third metacarpal) Ca, P and ash concentrations in nursery pigs on day 42; details: for Bone Ca (DM basis) / Bone P (DM basis) / Bone ash (DM basis): day 42
Text: as §1
On day 42, 2 pigs from each pen were euthanized to collect the right front legs. The third metacarpal bone from each right front leg was used to determine DM, Ca, P, and ash concentrations.
as §2

nursery pigs [3] = assay: Standardized total tract digestibility (STTD) of Ca and P in nursery pigs, fecal grab sampling day 24 to 26, titanium dioxide marker; details: for STTD of Ca / STTD of P: ZnO 2000 ppm Zn vs Zn(HMTBA)2 100 ppm Zn, nursery phase 2
Text: as §1
Fresh fecal samples were collected via grab sampling from each pig per pen at least twice per day from day 24 to 26. Fecal samples collected from the same pen during the 3 days were pooled together, and a subsample was placed inside a large oven set at 65° C. Oven dried fecal samples were stored at room temperature until analysis for dry matter (DM), Ca, P, and titanium (Ti).
The apparent total tract digestibility (ATTD) coefficient for Ca and P in each treatment was calculated using the following formula:
ATTD of Ca, %=[1−(Cafeces/Cadiet)×(Mdiet/Mfeces)]×100 (Equation 1)
ATTD of P, %=[1−(Pfeces/Pdiet)×Mdiet/Mfeces)]×100 (Equation 2) where Cafeces and Cadiet represented Ca concentrations (g/kg) in feces and diet DM, respectively; Pfeces and Pdiet represented P concentrations (g/kg) in feces and diet DM; Mdiet and Mdigesta represent the marker concentrations (g/kg) in diet and feces DM, respectively.
The standard total tract digestibility (STTD) of Ca was calculated according to the following equation:
STTD of Ca, %=[ATTD of Ca+(basal ECaLend/Cadiet)×100] (Equation 3) where Cadiet represented Ca concentrations (g/kg) in diet DM, respectively; basal ECaLend represented basal endogenous loss of Ca which was approximately 330 mg/kg DMI.
The standard total tract digestibility (STTD) of P was calculated according to the following equation:
STTD of P, %=[ATTD of P+(basal EPLend/Pdiet)×100] (Equation 4) where Pdiet represented P concentrations (g/kg) in diet DM, respectively; basal EPLend represented basal endogenous loss of P which was approximately 190 mg/kg DMI.
as §2

[4] = both supplemented at 80 ppm, Cu source main effect

Row | Compound | Difference to CuSO4 in gain to feed ratio (G:F) during day 15 to 28 (nursery pigs [1]; [4]) | G:F (d 15 to 28) (nursery pigs [1]; no phytase) [g/g] | G:F (d 15 to 28) (nursery pigs [1]; with phytase 500 FTU/kg) [g/g] | Difference to CuSO4 in bone Ca, P and ash (nursery pigs [2]; [4]) | Bone Ca (DM basis) (nursery pigs [2]; no phytase) [%] | Bone P (DM basis) (nursery pigs [2]; no phytase) [%] | Bone ash (DM basis) (nursery pigs [2]; no phytase) [%] | Bone Ca (DM basis) (nursery pigs [2]; with phytase 500 FTU/kg) [%] | Bone P (DM basis) (nursery pigs [2]; with phytase 500 FTU/kg) [%] | Bone ash (DM basis) (nursery pigs [2]; with phytase 500 FTU/kg) [%] | STTD of Ca (nursery pigs [3]; no phytase) | STTD of P (nursery pigs [3]; no phytase) [%] | STTD of Ca (nursery pigs [3]; with phytase 500 FTU/kg) [%] | STTD of P (nursery pigs [3]; with phytase 500 FTU/kg) [%] | Absolute increase of STTD of Ca compared with ZnO (nursery pigs [3]; with phytase supplementation) [%] | Absolute increase of STTD of P compared with ZnO (nursery pigs [3]; with phytase supplementation) [%] | Absolute increase of STTD of Ca compared with ZnO (nursery pigs [3]; without phytase) [%] | Absolute increase of STTD of P compared with ZnO (nursery pigs [3]; without phytase) [%]
1 | CSCCC(O)C(=O)[O-].CSCCC(O)C(=O)[O-].[Cu+2] (stereo not drawn) [Cu(HMTBA)2] | no significant differences | 0.75 | 0.84 | no significant differences | 12.55 | 6.44 | 35.95 | 14.89 | 7.81 | 41.97 | – | – | – | – | – | – | – | –
2 | O=S(=O)([O-])[O-].[Cu+2] [CuSO4, reference compound] | – | 0.76 | 0.80 | – | 13.04 | 6.65 | 36.69 | 14.14 | 7.38 | 40.41 | – | – | – | – | – | – | – | –
3 | CSCCC(O)C(=O)[O-].CSCCC(O)C(=O)[O-].[Zn+2] (stereo not drawn) [Zn(HMTBA)2] | – | – | – | – | – | – | – | – | – | – | 53.30% | 32.65 | 65.63 | 46.36 | 6.45 | 12.68 | 4.81 | 29.98
4 | [O]=[Zn] [ZnO, reference compound] | – | – | – | – | – | – | – | – | – | – | 48.48% and 48.49% | 2.67 | 59.18 | 33.68 | – | – | – | –
